The text below walks through data of patent US11406633B2, “Dosing schedule of a Wnt inhibitor and an anti-PD-1 antibody molecule in combination” (Novartis AG, priority 2017, dated 2022).

Where two headings read alike, the source gives them in different places.

One data set deals with Wnt pathway. The experiment in a line: pLRP6 and AXIN2 qPCR levels in biopsies of skin and tumors after treatment. In kind it is in vivo, human. To be noted: post-treatment skin sample biopsies. An excerpt: (§1) Recently, the secreted glycoproteins R-spondins 1-4 (RSPO1-4) have emerged as important activators of canonical Wnt signaling. RSPOs bind to leucine-rich repeat-containing G-protein-coupled receptors (LGR4-6) and the transmembrane E3 ubiquitin ligases RING finger 43/zinc and RING finger 3 (RNF43/ZNRF3), forming a ternary complex (Chen et al. Genes Dev; 2013, 27, 1345). RNF43/ZNRF3 antagonize Wnt signaling by promoting the turnover of Fz and LRP6 (Hao et al. Nature 2012, 485 (7397), 195-200; Koo et al. Nature, 2012, 488 (7413), 665). Binding of RSPO induces the endocytosis of RNF43/ZNRF3, thereby increasing levels of membrane-bound Fz and LRP6 and enhancing Wnt ligand-mediated signaling. In order to activate signaling within target cells, Wnt proteins must be properly secreted and transported across the extracellular space. Porcupine is a membrane-bound-O-acyltransferase (MBOAT) that adds palmitoyl groups to Wnt proteins (Takada et al. Dev. Cell 2006, 11, 791). […] For example, the Wnt inhibitor of the present disclosure, namely 2-(2′,3-dimethyl-[2,4′-bipyridin]-5-yl)-N-(5-(pyrazin-2-yl)pyridin-2-yl)acetamide was tested and the levels of pLRP6 and AXIN2qPCR were analyzed in biopsies of skin and tumors.
Background: Quantitative PCR measures a nucleic acid by following its amplification.

In the next data set the test system is tumor. The data set is described as follows: other single-agent studies: cytotoxic gene signature and tumor efficacy. The format is in vivo. To be noted: alone as a single agent.
Excerpt: as §1

A short description of data set [1]: animal toxicity studies in rat. An excerpt: Recently, the secreted glycoproteins R-spondins 1-4 (RSPO1-4) have emerged as important activators of canonical Wnt signaling. RSPOs bind to leucine-rich repeat-containing G-protein-coupled receptors (LGR4-6) and the transmembrane E3 ubiquitin ligases RING finger 43/zinc and RING finger 3 (RNF43/ZNRF3), forming a ternary complex (Chen et al. Genes Dev; 2013, 27, 1345). RNF43/ZNRF3 antagonize Wnt signaling by promoting the turnover of Fz and LRP6 (Hao et al. Nature 2012, 485 (7397), 195-200; Koo et al. Nature, 2012, 488 (7413), 665). Binding of RSPO induces the endocytosis of RNF43/ZNRF3, thereby increasing levels of membrane-bound Fz and LRP6 and enhancing Wnt ligand-mediated signaling. In order to activate signaling within target cells, Wnt proteins must be properly secreted and transported across the extracellular space. Porcupine is a membrane-bound-O-acyltransferase (MBOAT) that adds palmitoyl groups to Wnt proteins (Takada et al. Dev. Cell 2006, 11, 791). Mutations in components of the canonical Wnt pathway such as APC and β-catenin play important roles in the pathogenesis of some malignancies and those genetic lesions affect upstream Wnt pathway regulation. The inhibition of the Wnt pathway signaling was recently associated with several drawbacks such as side effects and dose limiting toxicities. Such drawbacks were limiting the anti-tumor efficacy of Wnt inhibitors. Separately, activation of the Wnt pathway was linked to resistance to immunotherapy and offers a mechanism by which tumors can evade immune detection and decrease clinical benefit to check-point inhibitors (Spranger et al. Nature 2015, 523, 231). For example, the Wnt inhibitor of the present disclosure, namely 2-(2′,3-dimethyl-[2,4′-bipyridin]-5-yl)-N-(5-(pyrazin-2-yl)pyridin-2-yl)acetamide was tested and the levels of pLRP6 and AXIN2qPCR were analyzed in biopsies of skin and tumors.

For data set [2], the system named is tumor-immune microenvironment / WNT pathway (AXIN2). The data set is described as follows: NanoString gene expression of paired tumor biopsies (screening vs on treatment), immune gene signatures fitted against AXIN2 change. In kind it is in vivo, human. To be noted: for relationship between AXIN2 inhibition and increased expression of the dendritic cell signature (CD103+) / relationship between AXIN2 inhibition and increased expression of the chemokine signature (CD8+ T-cell recruitment): log 2 fold-change screening to on-treatment, 9 paired samples; for relationship between AXIN2 inhibition and increased expression of the dendritic cell signature (CD103+): 15 days of exposure; for relationship between AXIN2 inhibition and increased expression of the chemokine signature (CD8+ T-cell recruitment): about 15 days of exposure. An excerpt:
NanoString measures gene expression for a selected panel of up to about 1000 genes. This is executed using uniquely barcoded probes that hybridize directly to target RNAs (ribonucleic acids). The RNA-probe hybrids are then run out on a gel to linearize the barcodes. These barcodes are then counted and then normalized using an internally developed pipeline. […] Tumors were fixed in formalin and embedded in paraffin (FFPE) or directly placed in RNA Later. These samples were transferred to Genoptix where RNA was isolated for real time qPCR analyses of the pharmacodynamics (PD) marker AXIN2. Remnant RNA was transferred to the assay research laboratory (ARL) where gene expression was profiled using (2016) NanoString pan-cancer immune profiling panel as well as a custom design panel of immune-related genes. Gene expression was normalized using methods recommended by NanoString, with the exception that samples were normalized within specific indications (e.g. melanoma or pancreatic cancer samples were normalized separately) and housekeeping genes were selected using the geNorm stability metric [PMID: 12184808]. Certain genes overlapped between both panels, which we used to assess variability and other quality control parameters. […] The count data described herein was normalized according to the methods recommended by NanoString with one exception, namely that the samples were normalized within the specific indications as described herein and approximately 40 housekeeping genes (defined on the NanoString website for their commercially available cancer immune panel, 2016) were used for biological normalization across samples. Gene signatures were used before to probe the data for phenotypic changes in the tumor-immune microenvironment. It has been previously shown that in genetically engineered mice with activated WNT signaling the dendritic cells and T-cells in the tumor microenvironment are inhibited; however, it has not been shown that this effect is reversible. Therefore, our objective was to use gene expression analyses in samples from the patients treated with the Wnt inhibitor to determine the extent to which the inhibitory effects of WNT signaling in the tumor on the proximal immune cells can be reversed by pharmacological inhibition of the WNT pathway. To understand whether the Compound of Formula (I) has effects on the tumor immune microenvironment, we looked at the relationships between immune gene expression and the PD marker AXIN2. By using this marker, we can understand the extent to which the WNT pathway has been inhibited in a given tumor. Instead of focusing on individual genes, we used the geometric average expression of sets of genes (gene signatures) that describe a particular pathway or cellular function. One gene signature is a chemokine signature that is associated with recruitment of CD8+ T-cells [PMID: 19293190] and other signature is associated with activated CD103+ dendritic cells [PMID: 25970248]. Not every subject presented with a strong inhibition of the WNT pathway as evidenced by the fold-changes observed in AXIN2 expression. […] These dendritic cells, when stimulated, function to recruit T-cells to the tumor. Importantly, this observation was made after 15 days of exposure to the Wnt inhibitor, which supported that intermittent dosing of the Compound of Formula (I) could be combined with a checkpoint inhibitor to stimulate an anti-tumor immune response in the context of tumors that previously had lacked immune infiltrate. […] The changes in AXIN2 expression were fitted by linear model to immune signature changes. […] Both are in log 2 scale. A positive value indicates an increase in the average expression of the genes in a given signature or in AXIN2. […] Second, a relationship between interferon gamma (or type II interferon) and AXIN2 inhibition was observed. Interferon gamma is typically expressed by CD8+ T-cells. […]

Data set [3] is described as follows: clinical study of the Wnt inhibitor: bone events. The format is in vivo, human. The following applies: patients. An excerpt:
The Wnt signaling pathway is required for development and survival of osteoblasts (involved in bone formation) and negatively regulates osteoclasts (involved in bone resorption). […] In addition, the short intermittent dosing of Wnt inhibitor was sufficient to result in upregulation of the activated dendritic cells signature. This is relevant because this subtype of dendritic cell is important for recruiting and activating T cells for an anti-tumoral response. Inhibition of the Wnt signaling in cancer treatment improves the response rate to PD-1 inhibition through release of inhibition of dendritic cells and T-cell activation. Overall, the combination of the Wnt inhibitor (i) and an anti-PD-1 antibody molecule, wherein Wnt inhibitor is administered only at the beginning of the treatment cycle for, e.g. 8 or 15 days, can show mutually coordinated effect of both compounds and offer better efficacy and […] safety profile compared to, for example, use of the Wnt inhibitor (i) alone.

The conditions of data set [4]: dog, in vivo.
A short description of data set [5]: animal toxicity studies in dog. The following applies: dogs.
For data set [6] the following is noted: determined within the CPDR001X2101 clinical study; cited from earlier work.

For `Cc1cc(-c2ncc(CC(=O)Nc3ccc(-c4cnccn4)cn3)cc2C)ccn1` [Compound of Formula (I), 2-(2′,3-dimethyl-[2,4′-bipyridin]-5-yl)-N-(5-(pyrazin-2-yl)pyridin-2-yl)acetamide], in the data set on Wnt pathway, the “level of AXIN2 (qPCR)” value was “inhibited” and the “level of pLRP6” value is “inhibited”. Besides, in the data set on tumor, the cytotoxic gene signature result is “increased” and the tumor efficacy result is “lack of tumor efficacy”. For the same compound, the trabeculae entry in data set [1] (rat studies) is reported as “decrease in trabeculae”. The “toxicities (organs affected)” value in data set [1] (rat, in vivo) is “toxicities in gastrointestinal (GI) tract, bones and teeth”. The “effects on bone marrow” value in data set [1] (rats) is “secondary effects”. Moreover, the “surrounding dendritic cell population on pharmacological inhibition of the WNT pathway” value in data set [2] (after 15 days of exposure) is “concomitant stimulation”. For the same compound, in data set [2], the “relationship between AXIN2 inhibition and increased expression of the dendritic cell signature (CD103+)” value was “fairly linear relationship”; the “relationship between AXIN2 inhibition and increased expression of the chemokine signature (CD8+ T-cell recruitment)” value was “fairly linear relationship”. For the same compound, in data set [2] (listed as Wnt inhibitor (i)), the “relationship between AXIN2 inhibition and increased expression of the dendritic cell signature (CD103+)” value is recorded as “fairly linear relationships”; the “relationship between AXIN2 inhibition and increased expression of the chemokine signature (CD8+ T-cell recruitment)” value is given as “fairly linear relationships”. In addition, in data set [2] (listed as WNT inhibitor (i)), the “relationship between AXIN2 inhibition and increased expression of the chemokine signature (CD8+ T-cell recruitment)” value is recorded as “linear relationship”. In data set [2] (log 2 scale, FIG. 4), the “relationship between AXIN2 inhibition and T-regulation (T-reg) signature” value is reported as “modest inverse relationship”; the “relationship between AXIN2 inhibition and mast cell signature” value is reported as “modest inverse relationship”; the “relationship between type I interferon signature and AXIN2 inhibition” value is recorded as “weak relationship”. In addition, in data set [2] (patient tumor biopsies), the “immune cell infiltrates in the tumor-immune microenvironment” value is “increasing immune cell infiltrates” and the “inhibition of CD103+ dendritic cells” value is recorded as “alleviating the inhibition of CD103+ dendritic cells”. Moreover, in data set [2] (patients, Wnt inhibitor alone), the “immune signatures in tumors” value was “changes in immune signatures in tumors”. For the same compound, in data set [2] (short intermittent dosing), the “activated dendritic cells signature” value is given as “upregulation”. Further, in data set [3], the bone fractures result is given as “some patients experienced bone fractures”. For the same compound, the “toxicities (organs affected)” value in data set [4] was “toxicities in gastrointestinal (GI) tract, bones and teeth”. Besides, in data set [5], the effects on kidneys entry is “secondary effects”.

For “PDR001: anti-PD-1 antibody molecule with VH and VL CDR sequences of BAP049-Clone-E, described in PCT/CN2016/099494”, in data set [6], the RP2D result is “dose of 400 mg Q4W is the RP2D determined within the CPDR001X2101”.
